PubChem BioAssay (NCI)
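Method: 48-hour compound exposure of cells in 96-well plates, five concentrations, linear interpolation of endpoints. Abbreviation: GI50, concentration required for 50% inhibition of growth. At the TGI there is no net growth.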

Tests used:
Test in all cases: DTP human tumour cell line panel, 48 h
MOLT-4 leukemia = system: MOLT-4 leukemia
MDA-MB-231 breast = system: MDA-MB-231 breast
UACC-257 melanoma = system: UACC-257 melanoma
HT29 colon = system: HT29 colon
MALME-3M melanoma = system: MALME-3M melanoma
TK-10 renal = system: TK-10 renal
RPMI-8226 leukemia = system: RPMI-8226 leukemia
U251 CNS = system: U251 CNS
HCC-2998 colon = system: HCC-2998 colon
KM12 colon = system: KM12 colon

| SMILES | TGI (MOLT-4 leukemia) | TGI (MDA-MB-231 breast) | TGI (UACC-257 melanoma) | TGI (HT29 colon) | TGI (MALME-3M melanoma) | TGI (TK-10 renal) | TGI (RPMI-8226 leukemia) | TGI (U251 CNS) | TGI (HCC-2998 colon) | TGI (KM12 colon) | GI50 (MOLT-4 leukemia) | GI50 (MDA-MB-231 breast) | GI50 (UACC-257 melanoma) | GI50 (KM12 colon) | GI50 (HT29 colon) | GI50 (MALME-3M melanoma) | GI50 (TK-10 renal) | GI50 (RPMI-8226 leukemia) | GI50 (U251 CNS) | GI50 (HCC-2998 colon) |
| --- | --- | --- | --- | --- | --- | --- | --- | --- | --- | --- | --- | --- | --- | --- | --- | --- | --- | --- | --- | --- |
| O=c1oc(C(C(F)(F)F)C(F)(F)F)nc2ccccc12 | > 100 µM | > 100 µM | > 100 µM | > 100 µM | > 100 µM | > 100 µM | > 100 µM | > 100 µM | > 100 µM |  |  |  |  |  |  |  |  |  |  |  |
| CC(C)(C)CC(C)(C)c1cc(O)c(O)c(CN2CCCCC2)c1 | 16.4 µM | 32.6 µM | 26.1 µM | 19.7 µM | 25.9 µM | 29.6 µM | 30.6 µM | 24.3 µM | 22.4 µM | 40.4 µM |  |  |  |  |  |  |  |  |  |  |
| CC(C)/C(Cl)=N\OC(NC(=O)P(=O)(c1ccccc1)c1ccccc1)(C(F)(F)F)C(F)(F)F | 39.6 µM | 34.4 µM | 42.2 µM | 59.1 µM | 20.9 µM | 25.2 µM | 37.5 µM | 12 µM | 33.4 µM | 23.1 µM |  |  |  |  |  |  |  |  |  |  |
| COc1cnc2c(c1)C(=O)c1c-2n(CCCNCCO)c(=O)c2ccncc12 | 10.2 µM | 10.9 µM | 9.02 µM | 16.7 µM | 2.82 µM | 19.3 µM | 7.58 µM | 19.4 µM | 4.19 µM | 11.7 µM | 0.405 µM | 1.95 µM | 2.18 µM | 1.51 µM | 0.633 µM | 1.1 µM | 2.05 µM | 1.85 µM | 0.708 µM | 1.58 µM |
| CN(C)CCCNc1ccc2nnn3c4ccc(O)cc4c(=O)c1c23 | 9.3 µM | 23.6 µM | 29.8 µM | 15.6 µM | 23.1 µM | 19.4 µM | 29.6 µM | 18.7 µM | 15.2 µM | 13.5 µM |  |  |  |  |  |  |  |  |  |  |
| CCOC(=O)Nn1c(CC#N)nnc1Cc1ccccc1 | > 100 µM | > 100 µM | > 100 µM | > 100 µM | > 100 µM | > 100 µM | > 100 µM | > 100 µM | > 100 µM | > 100 µM |  |  |  |  |  |  |  |  |  |  |
| O=C1NC(=O)C(C(CC(=O)c2ccc(Cl)cc2)c2ccc(Cl)cc2)C(=O)N1 (stereo not drawn) | > 100 µM | > 100 µM | > 100 µM | > 100 µM | 7.63 µM |  | > 100 µM | > 100 µM | > 100 µM | > 100 µM |  |  |  |  |  |  |  |  |  |  |
| C/C(=N\Nc1nc2ccccc2n1C)c1cc2ccccc2cn1 |  | 3.21 µM | 7.26 µM | 3.54 µM | 3.03 µM | 6.86 µM | 1.63 µM | 4.59 µM | 41.9 µM | 16.9 µM |  |  |  |  |  |  |  |  |  |  |
| CC(C)=CCNc1nc(Cl)nc2nc[nH]c12 | > 100 µM | 68.2 µM | > 100 µM | > 100 µM | > 100 µM | > 100 µM | > 100 µM |  | > 100 µM | > 100 µM |  |  |  |  |  |  |  |  |  |  |
| Cc1ccc(S(=O)(=O)Nn2c(O)c(C#N)c(-c3ccc(Cl)cc3)c(C#N)c2=O)cc1 | > 100 µM | > 100 µM | > 100 µM | > 100 µM | > 100 µM | > 100 µM | > 100 µM | > 100 µM | > 100 µM | > 100 µM |  |  |  |  |  |  |  |  |  |  |
| Cc1nc(N)c(N2CCN(CN)CC2)c(=O)[nH]1 | > 100 µM | > 100 µM | > 100 µM | > 100 µM | > 100 µM | > 100 µM | > 100 µM | > 100 µM | > 100 µM | > 100 µM |  |  |  |  |  |  |  |  |  |  |
| COC(=O)C1C(=O)N(C)C(=O)N2CCCC12 (stereo not drawn) | > 100 µM | > 100 µM | > 100 µM | > 100 µM | > 100 µM | > 100 µM | > 100 µM | > 100 µM | > 100 µM | > 100 µM |  |  |  |  |  |  |  |  |  |  |
| NCC(O)CSCc1ccc(Cl)cc1 (stereo not drawn) | > 100 µM | > 100 µM | > 100 µM | > 100 µM | > 100 µM | > 100 µM | > 100 µM | > 100 µM | > 100 µM | > 100 µM |  |  |  |  |  |  |  |  |  |  |
| COc1ccc(-c2oc3cc(O)cc(O)c3c(=O)c2OC)cc1 | 87.9 µM | > 100 µM | > 100 µM | 68.3 µM | > 100 µM | > 100 µM | 69.2 µM | 52.1 µM | 62.9 µM |  |  |  |  |  |  |  |  |  |  |  |
| CCCCCCCCCCCCCCCCCCNc1nc(=O)n(C2CC(O)C(COP(=O)(O)O)O2)cc1F (stereo not drawn) | > 96.1 µM | > 100 µM | > 100 µM | > 100 µM | > 100 µM | > 100 µM | > 100 µM | > 100 µM | > 100 µM | > 100 µM |  |  |  |  |  |  |  |  |  |  |
| O=C(O)COc1cc(-c2ccccc2)nc2cc(F)ccc12 | > 100 µM | > 100 µM | > 100 µM | > 100 µM | > 100 µM | > 100 µM | > 100 µM | > 100 µM | > 100 µM | > 100 µM |  |  |  |  |  |  |  |  |  |  |
| O=C1OC[C@H]2[C@@H]1[C@H]1O[C@@H]2C2=C(CCC2)C1=O |  | > 100 µM | > 100 µM | > 100 µM | > 100 µM | > 100 µM | > 100 µM | > 100 µM | > 100 µM | > 100 µM |  |  |  |  |  |  |  |  |  |  |
| CC(C)C(C/C=C1\CC(CO)(COC(=O)C2CCCCC2)OC1=O)C(C)C (stereo not drawn) | 39.8 µM | 36.1 µM | 84.1 µM | 79.5 µM | 35.5 µM | 41.8 µM |  | 44.1 µM | 65.1 µM | 39.5 µM |  |  |  |  |  |  |  |  |  |  |
| Cc1cc(OC(=O)NCn2cc(-c3ccccc3)nn2)ccc1Cl | > 100 µM | > 100 µM | > 100 µM | > 100 µM | > 100 µM | > 100 µM | > 100 µM | > 100 µM | 39.2 µM | > 100 µM |  |  |  |  |  |  |  |  |  |  |
| CCOC(=O)c1cc(C)nc2c1c(=O)n(-c1ccccc1)c(=O)n2CCCCN1CCN(c2ccccc2)CC1 | > 100 µM | > 100 µM | 99.8 µM | > 100 µM | > 100 µM | > 100 µM | 77.3 µM | > 100 µM | > 100 µM | > 100 µM |  |  |  |  |  |  |  |  |  |  |
| O=C1c2c(O)cccc2-c2nn(CCNCCO)c3ccc(NCCNCCO)c1c23 | 0.086 µM | 2.51 µM | 5.69 µM | 13.1 µM | 1.12 µM | 7.08 µM | 7.65 µM | 0.195 µM | 1 µM | 7.73 µM |  |  |  |  |  |  |  |  |  |  |
